# Measured values: publication PMC7265341, “Quantifying CDK inhibitor selectivity in live cells” (Nature Communications, 2020)
# Where two headings read alike, the source gives them in different places.
# Experiments:
# CDK17/Cyclin Y = CDK17/Cyclin Y (Homo sapiens, UniProt Q00537); assay: NanoBRET live-cell target engagement, CDK17-NanoLuc/Cyclin Y in HEK-293; type: binding; settings: CDK17/Y, read-out: Inhibition at 10µM (%)
# CDK8/Cyclin C = CDK8/Cyclin C (Homo sapiens, UniProt P49336); assay: NanoBRET live-cell target engagement, NanoLuc-CDK8/Cyclin C in HEK-293; type: binding; settings: for IC50: CDK8/C; for inhibition at 10 µM: read-out: Inhibition at 10µM (%), CDK8/C
# CDK2/Cyclin E1 = CDK2/Cyclin E1 (Homo sapiens, UniProt P24941); assay: NanoBRET live-cell target engagement, CDK2-NanoLuc/Cyclin E1 in HEK-293; type: binding; settings: CDK2/E1, read-out: Inhibition at 10µM (%)
# CDK10/Cyclin L2 = CDK10/Cyclin L2 (Homo sapiens, UniProt Q15131); assay: NanoBRET live-cell target engagement, CDK10-NanoLuc/Cyclin L2 in HEK-293; settings: read-out: Inhibition at 10µM (%), CDK10/L2
# CDK16/Cyclin Y = CDK16/Cyclin Y (Homo sapiens, UniProt Q00536); assay: NanoBRET live-cell target engagement, CDK16-NanoLuc/Cyclin Y in HEK-293; type: binding; settings: CDK16/Y, read-out: Inhibition at 10µM (%)
# CDK5/CDK5R1 = CDK5/CDK5R1 (Homo sapiens, UniProt Q00535); assay: NanoBRET live-cell target engagement, CDK5-NanoLuc/CDK5R1 in HEK-293; type: binding; settings: CDK5/CDK5R1, read-out: Inhibition at 10µM (%)
# CDK3/Cyclin E1 = CDK3/Cyclin E1 (Homo sapiens, UniProt Q00526); assay: NanoBRET live-cell target engagement, CDK3-NanoLuc/Cyclin E1 in HEK-293; type: binding; settings: read-out: Inhibition at 10µM (%), CDK3/E1
# CDK11B/Cyclin L2 = CDK11B/Cyclin L2 (Homo sapiens, UniProt P21127); assay: NanoBRET live-cell target engagement, CDK11B-NanoLuc/Cyclin L2 in HEK-293; type: binding; settings: CDK11b/L2, read-out: Inhibition at 10µM (%)
# CDK6/Cyclin D1 = CDK6/Cyclin D1 (Homo sapiens, UniProt Q00534); assay: NanoBRET live-cell target engagement, NanoLuc-CDK6/Cyclin D1 in HEK-293; type: binding; settings: CDK6/D1, read-out: Inhibition at 10µM (%)
# CDK7 = CDK7 (Homo sapiens, UniProt P50613); assay: NanoBRET live-cell target engagement, NanoLuc-CDK7 in HEK-293; type: binding; settings: CDK7, read-out: Inhibition at 10µM (%)
# CDK7, sequence (P50613 whole entry): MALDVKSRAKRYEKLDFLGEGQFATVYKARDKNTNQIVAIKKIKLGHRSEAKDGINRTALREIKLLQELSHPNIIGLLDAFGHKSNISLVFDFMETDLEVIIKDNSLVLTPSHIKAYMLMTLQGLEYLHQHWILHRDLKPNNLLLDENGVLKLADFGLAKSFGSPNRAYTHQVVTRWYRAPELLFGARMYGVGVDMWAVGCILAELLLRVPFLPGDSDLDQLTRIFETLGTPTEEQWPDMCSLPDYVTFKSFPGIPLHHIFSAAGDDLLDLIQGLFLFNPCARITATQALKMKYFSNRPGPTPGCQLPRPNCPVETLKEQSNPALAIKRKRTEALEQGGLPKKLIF
# CDK18/Cyclin Y = CDK18/Cyclin Y (Homo sapiens, UniProt Q07002); assay: NanoBRET live-cell target engagement, CDK18-NanoLuc/Cyclin Y in HEK-293; type: binding; settings: CDK18/Y, read-out: Inhibition at 10µM (%)
# CDK9/Cyclin K = CDK9/Cyclin K (Homo sapiens, UniProt P50750); assay: NanoBRET live-cell target engagement, NanoLuc-CDK9/Cyclin K in HEK-293; type: binding; settings: CDK9/K, read-out: Inhibition at 10µM (%)
# CDK9/Cyclin K, sequence (P50750 whole entry): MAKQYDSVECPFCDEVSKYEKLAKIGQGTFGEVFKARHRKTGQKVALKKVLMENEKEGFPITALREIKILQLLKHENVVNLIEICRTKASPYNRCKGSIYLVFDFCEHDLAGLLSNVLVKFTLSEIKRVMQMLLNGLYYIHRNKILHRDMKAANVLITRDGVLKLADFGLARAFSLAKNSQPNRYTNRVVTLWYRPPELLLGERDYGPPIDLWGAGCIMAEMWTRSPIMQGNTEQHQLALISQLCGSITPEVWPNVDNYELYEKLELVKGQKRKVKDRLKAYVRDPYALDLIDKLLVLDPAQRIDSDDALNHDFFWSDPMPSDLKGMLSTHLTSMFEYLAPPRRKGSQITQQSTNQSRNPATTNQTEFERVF
# CDK9/Cyclin K, sequence (O75909 whole entry partner): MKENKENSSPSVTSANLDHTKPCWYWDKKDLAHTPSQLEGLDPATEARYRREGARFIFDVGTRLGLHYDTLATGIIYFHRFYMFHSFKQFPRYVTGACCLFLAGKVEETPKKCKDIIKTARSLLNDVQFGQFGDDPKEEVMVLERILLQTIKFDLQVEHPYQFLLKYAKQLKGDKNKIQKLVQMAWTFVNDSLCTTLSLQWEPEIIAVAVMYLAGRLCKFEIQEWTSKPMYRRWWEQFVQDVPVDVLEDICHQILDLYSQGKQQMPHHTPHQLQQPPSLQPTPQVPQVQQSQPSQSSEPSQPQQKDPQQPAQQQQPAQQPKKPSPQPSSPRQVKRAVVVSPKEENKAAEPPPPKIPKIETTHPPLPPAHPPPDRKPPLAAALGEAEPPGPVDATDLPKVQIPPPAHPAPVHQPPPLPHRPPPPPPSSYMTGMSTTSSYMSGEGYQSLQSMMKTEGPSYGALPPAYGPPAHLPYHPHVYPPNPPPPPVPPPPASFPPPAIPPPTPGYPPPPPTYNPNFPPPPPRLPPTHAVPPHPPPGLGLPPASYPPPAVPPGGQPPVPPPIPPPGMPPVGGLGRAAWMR
# CDK1/Cyclin E1 = CDK1/Cyclin E1 (Homo sapiens, UniProt P06493); assay: NanoBRET live-cell target engagement, CDK1-NanoLuc/Cyclin E1 in HEK-293; type: binding; settings: CDK1/E1, read-out: Inhibition at 10µM (%)
# CDK1/Cyclin E1, sequence (P06493 whole entry): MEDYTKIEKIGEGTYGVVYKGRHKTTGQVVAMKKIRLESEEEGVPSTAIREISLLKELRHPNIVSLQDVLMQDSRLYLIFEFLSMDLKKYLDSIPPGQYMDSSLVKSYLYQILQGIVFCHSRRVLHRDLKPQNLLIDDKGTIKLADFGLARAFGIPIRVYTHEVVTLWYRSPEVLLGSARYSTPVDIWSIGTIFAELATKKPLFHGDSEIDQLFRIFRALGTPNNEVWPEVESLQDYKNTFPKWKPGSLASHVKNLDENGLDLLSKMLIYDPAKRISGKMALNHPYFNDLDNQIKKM
# CDK1/Cyclin E1, sequence (P24864 whole entry partner): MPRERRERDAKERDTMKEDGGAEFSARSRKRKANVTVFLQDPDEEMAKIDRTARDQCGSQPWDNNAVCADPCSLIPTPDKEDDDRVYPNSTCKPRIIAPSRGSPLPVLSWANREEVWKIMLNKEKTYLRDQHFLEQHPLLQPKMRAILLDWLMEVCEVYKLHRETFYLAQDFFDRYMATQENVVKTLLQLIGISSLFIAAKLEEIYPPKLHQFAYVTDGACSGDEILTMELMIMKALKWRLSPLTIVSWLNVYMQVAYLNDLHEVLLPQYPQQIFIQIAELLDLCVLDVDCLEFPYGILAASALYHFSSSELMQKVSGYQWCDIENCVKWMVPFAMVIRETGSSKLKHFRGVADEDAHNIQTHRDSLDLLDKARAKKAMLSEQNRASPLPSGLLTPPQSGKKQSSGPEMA
# CDK14/Cyclin Y = CDK14/Cyclin Y (Homo sapiens, UniProt O94921); assay: NanoBRET live-cell target engagement, CDK14-NanoLuc/Cyclin Y in HEK-293; type: binding; settings: CDK14/Y, read-out: Inhibition at 10µM (%)
# CDK14/Cyclin Y, sequence (O94921 whole entry): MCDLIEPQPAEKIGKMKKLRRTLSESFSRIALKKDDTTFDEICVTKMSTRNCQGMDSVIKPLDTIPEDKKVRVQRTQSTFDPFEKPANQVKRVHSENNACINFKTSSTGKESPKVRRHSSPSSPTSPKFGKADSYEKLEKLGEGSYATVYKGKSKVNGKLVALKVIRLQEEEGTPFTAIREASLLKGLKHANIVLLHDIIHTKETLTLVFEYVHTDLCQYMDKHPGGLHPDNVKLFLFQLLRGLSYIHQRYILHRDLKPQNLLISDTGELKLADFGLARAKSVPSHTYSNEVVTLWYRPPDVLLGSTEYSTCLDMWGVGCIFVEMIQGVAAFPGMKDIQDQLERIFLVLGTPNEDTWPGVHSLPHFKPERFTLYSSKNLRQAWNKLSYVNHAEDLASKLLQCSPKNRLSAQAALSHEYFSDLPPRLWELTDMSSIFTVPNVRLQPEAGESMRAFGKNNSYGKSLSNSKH
# CDK14/Cyclin Y, sequence (Q8ND76 whole entry partner): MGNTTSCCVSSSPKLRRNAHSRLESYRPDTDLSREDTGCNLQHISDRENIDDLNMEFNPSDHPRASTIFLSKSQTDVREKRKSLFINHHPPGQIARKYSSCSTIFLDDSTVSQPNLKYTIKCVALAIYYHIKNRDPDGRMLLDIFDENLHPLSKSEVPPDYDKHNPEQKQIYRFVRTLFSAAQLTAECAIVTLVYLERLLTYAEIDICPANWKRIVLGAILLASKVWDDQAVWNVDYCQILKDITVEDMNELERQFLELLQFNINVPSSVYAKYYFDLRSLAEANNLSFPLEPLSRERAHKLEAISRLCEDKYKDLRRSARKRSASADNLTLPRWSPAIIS
# CDK4/Cyclin D1 = CDK4/Cyclin D1 (Homo sapiens, UniProt P11802); assay: NanoBRET live-cell target engagement, NanoLuc-CDK4/Cyclin D1 in HEK-293; type: binding; settings: CDK4/D1, read-out: Inhibition at 10µM (%)
# CDK12/Cyclin K = CDK12/Cyclin K (Homo sapiens, UniProt Q9NYV4); assay: NanoBRET live-cell target engagement, CDK12-NanoLuc/Cyclin K in HEK-293; type: binding; settings: CDK12/K, read-out: Inhibition at 10µM (%)
# CDK12/Cyclin K, sequence (Q9NYV4 1-1481 isoform Q9NYV4-2): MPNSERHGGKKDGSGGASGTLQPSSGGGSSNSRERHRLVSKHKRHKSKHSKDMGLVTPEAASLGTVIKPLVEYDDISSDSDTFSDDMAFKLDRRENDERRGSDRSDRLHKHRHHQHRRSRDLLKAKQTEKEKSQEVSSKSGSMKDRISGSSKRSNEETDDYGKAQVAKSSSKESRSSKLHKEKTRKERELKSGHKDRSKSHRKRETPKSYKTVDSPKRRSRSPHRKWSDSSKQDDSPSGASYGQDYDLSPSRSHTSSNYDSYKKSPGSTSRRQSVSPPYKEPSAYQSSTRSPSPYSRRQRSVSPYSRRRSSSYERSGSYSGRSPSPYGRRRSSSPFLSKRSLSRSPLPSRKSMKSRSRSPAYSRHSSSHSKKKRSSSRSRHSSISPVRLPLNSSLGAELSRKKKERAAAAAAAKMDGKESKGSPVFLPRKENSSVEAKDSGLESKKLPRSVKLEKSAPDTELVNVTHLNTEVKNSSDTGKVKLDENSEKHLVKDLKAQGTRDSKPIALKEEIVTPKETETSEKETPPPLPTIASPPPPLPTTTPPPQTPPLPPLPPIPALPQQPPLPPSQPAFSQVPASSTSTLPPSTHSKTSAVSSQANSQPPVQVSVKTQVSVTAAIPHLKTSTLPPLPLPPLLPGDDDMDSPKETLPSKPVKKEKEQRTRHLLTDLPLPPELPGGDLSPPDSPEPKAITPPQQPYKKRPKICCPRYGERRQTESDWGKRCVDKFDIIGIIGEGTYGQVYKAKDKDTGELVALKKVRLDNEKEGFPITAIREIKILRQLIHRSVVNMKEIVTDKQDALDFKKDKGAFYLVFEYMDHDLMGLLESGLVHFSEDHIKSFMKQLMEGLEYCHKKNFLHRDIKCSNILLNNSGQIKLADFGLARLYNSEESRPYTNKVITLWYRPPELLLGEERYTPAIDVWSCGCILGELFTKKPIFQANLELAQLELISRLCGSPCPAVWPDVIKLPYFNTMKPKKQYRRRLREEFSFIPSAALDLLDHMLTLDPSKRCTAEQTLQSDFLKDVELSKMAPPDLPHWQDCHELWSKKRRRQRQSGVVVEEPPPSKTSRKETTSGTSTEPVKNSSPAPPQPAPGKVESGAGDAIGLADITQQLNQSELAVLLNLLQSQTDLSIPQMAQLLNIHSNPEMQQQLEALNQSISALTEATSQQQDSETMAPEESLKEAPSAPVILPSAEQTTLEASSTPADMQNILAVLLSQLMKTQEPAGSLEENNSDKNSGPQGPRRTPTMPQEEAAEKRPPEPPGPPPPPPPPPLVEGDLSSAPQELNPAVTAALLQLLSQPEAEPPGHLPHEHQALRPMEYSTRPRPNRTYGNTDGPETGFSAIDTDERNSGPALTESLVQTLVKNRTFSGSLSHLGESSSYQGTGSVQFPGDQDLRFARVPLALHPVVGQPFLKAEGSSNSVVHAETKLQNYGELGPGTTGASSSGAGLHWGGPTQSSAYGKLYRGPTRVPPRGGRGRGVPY
# CDK12/Cyclin K, sequence (O75909 whole entry partner): as the sequence (O75909 whole entry partner) above
# CDK15/Cyclin Y = CDK15/Cyclin Y (Homo sapiens, UniProt Q96Q40); assay: NanoBRET live-cell target engagement, NanoLuc-CDK15/Cyclin Y in HEK-293; type: binding; settings: CDK15/Y, read-out: Inhibition at 10µM (%)
# CDK19/Cyclin C = CDK19/Cyclin C (Homo sapiens, UniProt Q9BWU1); assay: NanoBRET live-cell target engagement, NanoLuc-CDK19/Cyclin C in HEK-293; settings: for IC50: IC50 (nM), CDK19/C; for inhibition at 10 µM: read-out: Inhibition at 10µM (%), CDK19/C
# CDK20/Cyclin H = CDK20/Cyclin H (Homo sapiens, UniProt Q8IZL9); assay: NanoBRET live-cell target engagement, NanoLuc-CDK20/Cyclin H in HEK-293; type: binding; settings: CDK20/H, read-out: Inhibition at 10µM (%)
# CDK13/Cyclin K = CDK13/Cyclin K (Homo sapiens, UniProt Q14004); assay: NanoBRET live-cell target engagement, CDK13-NanoLuc/Cyclin K in HEK-293; type: binding; settings: CDK13/K, read-out: Inhibition at 10µM (%)
# CDK17/Cyclin Y, sequence (Q00537 whole entry): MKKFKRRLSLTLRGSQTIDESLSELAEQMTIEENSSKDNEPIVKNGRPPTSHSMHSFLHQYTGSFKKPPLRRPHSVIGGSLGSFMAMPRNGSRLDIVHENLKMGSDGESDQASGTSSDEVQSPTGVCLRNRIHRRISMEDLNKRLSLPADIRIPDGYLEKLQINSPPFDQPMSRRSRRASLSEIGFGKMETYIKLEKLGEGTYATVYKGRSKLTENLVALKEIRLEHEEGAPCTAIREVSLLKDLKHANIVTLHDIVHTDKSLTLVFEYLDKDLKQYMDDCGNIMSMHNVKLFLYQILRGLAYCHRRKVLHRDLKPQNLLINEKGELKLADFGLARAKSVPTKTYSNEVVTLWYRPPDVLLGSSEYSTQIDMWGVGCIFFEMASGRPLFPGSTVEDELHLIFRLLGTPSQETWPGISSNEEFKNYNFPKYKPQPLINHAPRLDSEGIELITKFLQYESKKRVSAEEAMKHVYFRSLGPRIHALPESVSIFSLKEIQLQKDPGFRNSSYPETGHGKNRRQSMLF
# CDK17/Cyclin Y, sequence (Q8ND76 whole entry partner): as the sequence (Q8ND76 whole entry partner) above
smiles,measurement,setting,value
Cn1cc(-c2ccc(-c3cncc(Cl)c3N3CCC4(CCNC4=O)CC3)cc2)cn1 [CCT251545],inhibition at 10 µM,CDK17/Cyclin Y; average,1.3%
same,inhibition at 10 µM,CDK17/Cyclin Y; experiment 1,5.9%
same,inhibition at 10 µM,CDK17/Cyclin Y; experiment 2,-3.2%
same,Kd,CDK8/Cyclin C,≤ 10 nM
same,IC50,"CDK8/Cyclin C; IC50 (nM), experiment 1",2 nM
same,IC50,"CDK8/Cyclin C; IC50 (nM), experiment 2",2 nM
same,IC50,"CDK8/Cyclin C; IC50 (nM), experiment 3",9 nM
same,IC50,"CDK8/Cyclin C; IC50 for CDK/cyclin complexes, live HEK-293, 2 h, mean ± S.E.M. (n=3) or mean (n=2)",6 nM
same,inhibition at 10 µM,CDK8/Cyclin C; average,97.8%
same,inhibition at 10 µM,CDK8/Cyclin C; experiment 1,98.8%
same,inhibition at 10 µM,CDK8/Cyclin C; experiment 2,96.9%
same,inhibition at 10 µM,CDK2/Cyclin E1; average,-6.3%
same,inhibition at 10 µM,CDK2/Cyclin E1; experiment 1,-6.4%
same,inhibition at 10 µM,CDK2/Cyclin E1; experiment 2,-6.1%
same,inhibition at 10 µM,CDK10/Cyclin L2; average,6.5%
same,inhibition at 10 µM,CDK10/Cyclin L2; experiment 1,-3.1%
same,inhibition at 10 µM,CDK10/Cyclin L2; experiment 2,16.1%
same,inhibition at 10 µM,CDK16/Cyclin Y; experiment 1,1.8%
same,inhibition at 10 µM,CDK16/Cyclin Y; experiment 2,-12.1%
same,inhibition at 10 µM,CDK5/CDK5R1; average,16.2%
same,inhibition at 10 µM,CDK5/CDK5R1; experiment 1,23.2%
same,inhibition at 10 µM,CDK5/CDK5R1; experiment 2,9.2%
same,inhibition at 10 µM,CDK3/Cyclin E1; average,-2.7%
same,inhibition at 10 µM,CDK3/Cyclin E1; experiment 1,-4.5%
same,inhibition at 10 µM,CDK3/Cyclin E1; experiment 2,-1%
same,inhibition at 10 µM,CDK11B/Cyclin L2; average,-1%
same,inhibition at 10 µM,CDK11B/Cyclin L2; experiment 1,-3.6%
same,inhibition at 10 µM,CDK11B/Cyclin L2; experiment 2,1.7%
same,inhibition at 10 µM,CDK6/Cyclin D1; average,-5%
same,inhibition at 10 µM,CDK6/Cyclin D1; experiment 1,-11.6%
same,inhibition at 10 µM,CDK6/Cyclin D1; experiment 2,1.5%
same,inhibition at 10 µM,CDK7; average,-8.2%
same,inhibition at 10 µM,CDK7; experiment 1,-5.4%
same,inhibition at 10 µM,CDK7; experiment 2,-11.1%
same,inhibition at 10 µM,CDK18/Cyclin Y; average,10.8%
same,inhibition at 10 µM,CDK18/Cyclin Y; experiment 1,2.3%
same,inhibition at 10 µM,CDK18/Cyclin Y; experiment 2,19.2%
same,inhibition at 10 µM,CDK9/Cyclin K; average,15.8%
same,inhibition at 10 µM,CDK9/Cyclin K; experiment 1,9.2%
same,inhibition at 10 µM,CDK9/Cyclin K; experiment 2,22.5%
same,inhibition at 10 µM,CDK1/Cyclin E1; average,15.4%
same,inhibition at 10 µM,CDK1/Cyclin E1; experiment 1,21.3%
same,inhibition at 10 µM,CDK1/Cyclin E1; experiment 2,9.4%
same,inhibition at 10 µM,CDK14/Cyclin Y; average,-6%
same,inhibition at 10 µM,CDK14/Cyclin Y; experiment 1,-5.6%
same,inhibition at 10 µM,CDK14/Cyclin Y; experiment 2,-6.4%
same,inhibition at 10 µM,CDK4/Cyclin D1; average,6.9%
same,inhibition at 10 µM,CDK4/Cyclin D1; experiment 1,-6.1%
same,inhibition at 10 µM,CDK4/Cyclin D1; experiment 2,19.9%
same,inhibition at 10 µM,CDK12/Cyclin K; average,-2.2%
same,inhibition at 10 µM,CDK12/Cyclin K; experiment 1,2.5%
same,inhibition at 10 µM,CDK12/Cyclin K; experiment 2,-6.8%
same,inhibition at 10 µM,CDK15/Cyclin Y; average,1.4%
same,inhibition at 10 µM,CDK15/Cyclin Y; experiment 1,2.4%
same,inhibition at 10 µM,CDK15/Cyclin Y; experiment 2,0.46%
same,Kd,CDK19/Cyclin C,≤ 10 nM
same,IC50,CDK19/Cyclin C; experiment 2,1.5 nM
same,IC50,CDK19/Cyclin C; experiment 3,10 nM
same,inhibition at 10 µM,CDK19/Cyclin C; average,94%
same,inhibition at 10 µM,CDK19/Cyclin C; experiment 1,97.3%
same,inhibition at 10 µM,CDK19/Cyclin C; experiment 2,90.6%
same,inhibition at 10 µM,CDK20/Cyclin H; experiment 1,3.3%
same,inhibition at 10 µM,CDK20/Cyclin H; experiment 2,5.3%
same,inhibition at 10 µM,CDK13/Cyclin K; average,7.2%
same,inhibition at 10 µM,CDK13/Cyclin K; experiment 1,7.3%
same,inhibition at 10 µM,CDK13/Cyclin K; experiment 2,7.1%
